The results in this text go back to patent publication US6787539B2, “2,4,5,-trisubstituted pyrimidine derivatives” (Hoffmann-La Roche Inc., priority 2000, dated 2004).

The target of this assay is T1, human NK1 receptor (Homo sapiens, UniProt P25103).
T1 construct: expressed in transfected cells; host or cells: CHO cells infected using the Semliki virus expression system; membrane suspension
T1 sequence (P25103 whole entry): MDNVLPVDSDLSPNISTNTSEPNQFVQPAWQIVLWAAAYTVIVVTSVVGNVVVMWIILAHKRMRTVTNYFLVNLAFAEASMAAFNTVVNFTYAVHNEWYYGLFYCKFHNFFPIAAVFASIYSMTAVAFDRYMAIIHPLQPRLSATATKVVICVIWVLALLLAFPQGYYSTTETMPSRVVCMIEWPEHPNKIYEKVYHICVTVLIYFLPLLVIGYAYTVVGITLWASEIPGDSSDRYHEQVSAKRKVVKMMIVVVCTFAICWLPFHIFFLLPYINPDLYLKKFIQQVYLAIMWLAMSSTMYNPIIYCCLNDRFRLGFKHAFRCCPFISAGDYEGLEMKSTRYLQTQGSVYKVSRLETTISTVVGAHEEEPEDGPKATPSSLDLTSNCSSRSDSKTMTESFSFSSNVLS
Nature of the assay: Affinity for the NK1 receptor, [3H]substance P displacement binding assay. Conditions: affinity to the NK-1 receptor; human NK1 receptors in CHO cells; [3H]substance P 0.6 nM; 60 min at room temperature. How it is done:
The affinity of test compounds for the NK1 receptor was evaluated at human NK1 receptors in CHO cells infected with the human NK1 receptor (using the Semliki virus expression system) and radiolabelled with [^3H]substance P (final concentration 0.6 nM). Binding assays were performed in HEPES buffer (50 mM, pH 7.4) containing BSA (0.04%) leupeptin (8 μg/ml), MnCl2 (3 mM) and phosphoramidon (2 μM). Binding assays consisted of 250 μl of membrane suspension (1.25×10^5 cells/assay tube), […] of displacing agent and 125 μl of [^3H]substance P. Displacement curves were determined with at least seven concentrations of the compound. The assay tubes were incubated for 60 min at room temperature after which time the tube contents were rapidly filtered under vacuum through GF/C filters presoaked for 60 min with PEI (0.3%) with 2×2 ml washes of HEPES buffer (50 mM, pH 7.4). The radioactivity retained on the filters was measured by scintillation counting. All assays were performed in triplicate in at least 2 separate experiments.
Usually pKi stands for the Ki on a negative log10 scale, so that one unit is a factor of ten. A lower pKi goes with a large Ki. Compound “4-(2-Methoxy-phenoxy)-2-(4-methyl-piperazin-1-yl)-pyrimidine-5-carboxylic acid (3,5-bis-trifluoromethyl-benzyl)-methyl-amide [Example 29]” registered a pKi of 6.50.
The Ki is the equilibrium dissociation constant of an inhibitor or competing ligand from its target. Low values mean a stronger hold on the target, high ones a looser hold on the target. The compound `CSc1ncc(C(=O)N(C)Cc2cc(C(F)(F)F)cc(C(F)(F)F)c2)c(Oc2ccccc2C)n1` [Example 1, 2-Methylsulfanyl-4-o-tolyloxy-pyrimidine-5-carboxylic acid (3,5-bis-trifluoromethyl-benzyl)-methyl-amide] gave an inhibition constant Ki of 41.7 nM. That is a double-digit nanomolar value.
`Cc1ccccc1Oc1nc(N2CCN(C)CC2)ncc1C(=O)N(C)Cc1cc(C(F)(F)F)cc(C(F)(F)F)c1` [Example 4, 2-(4-Methyl-piperazin-1-yl)-4-o-tolyloxy-pyrimidine-5-carboxylic acid (3,5-bis-trifluoromethyl-benzyl)-methyl-amide] had a Ki of 2.88 nM.
In the case of `Cc1ccccc1Oc1nc(OCCN2CCOCC2)ncc1C(=O)N(C)Cc1cc(C(F)(F)F)cc(C(F)(F)F)c1` [Example 7, 2-(2-Morpholin-4-yl-ethoxy)-4-o-tolyloxy-pyrimidine-5-carboxylic acid (3,5-bis-trifluoromethyl-benzyl)-methyl-amide], the affinity, expressed as Ki, was 4.68 nM.
The compound `COc1cc(CN(C)C(=O)c2cnc(N3CCN(C)CC3)nc2Oc2ccccc2C)cc(OC)c1` [Example 11, 2-(4-Methyl-piperazin-1-yl)-4-o-tolyloxy-pyrimidine-5-carboxylic acid (3,5-dimethoxy-benzyl)-methyl-amide] showed a Ki of 170 nM.
In turn, `Cc1cc(C)cc(CN(C)C(=O)c2cnc(N3CCN(C)CC3)nc2Oc2ccccc2C)c1` [Example 15, 2-(4-Methyl-piperazin-1-yl)-4-o-tolyloxy-pyrimidine-5-carboxylic acid (3,5-dimethyl-benzyl)-methyl-amide] had an inhibitory constant (Ki) of 28.2 nM.
For the compound `Cc1ccccc1Oc1nc(N2CCN(C)CC2)ncc1C(=O)NCc1cc(Cl)cc(Cl)c1` [Example 19, 2-(4-Methyl-piperazin-1-yl)-4-o-tolyloxy-pyrimidine-5-carboxylic acid 3,5-dichloro-benzylamide], the Ki was 195 nM.
`CSc1ncc(C(=O)N(C)Cc2cc(C(F)(F)F)cc(C(F)(F)F)c2)c(Oc2ccccc2)n1` [Example 23, 2-Methylsulfanyl-4-phenoxy-pyrimidine-5-carboxylic acid (3,5-bis-trifluoromethyl-benzyl)-methyl-amide]: the affinity corresponds to a Ki of 97.7 nM.
On to `Cc1ccccc1Oc1nc(-c2ccncc2)ncc1C(=O)N(C)Cc1cc(C(F)(F)F)cc(C(F)(F)F)c1` [Example 39, 2-Pyridin-4-yl-4-o-tolyloxy-pyrimidine-5-carboxylic acid (3,5-bis-trifluoromethyl-benzyl)-methyl-amide], for which the inhibition constant Ki was 16.2 nM. This Ki is about 6-fold lower than that of the compound before.
`Cc1ccccc1Oc1nc(N2CCSCC2)ncc1C(=O)N(C)Cc1cc(C(F)(F)F)cc(C(F)(F)F)c1` [Example 44, 2-Thiomorpholin-4-yl-4-o-tolyloxy-pyrimidine-5-carboxylic acid (3,5-bis-trifluoromethyl-benzyl)-methyl-amide] had a Ki of 20 nM.
`Cc1ccccc1Oc1nc(N2CCN(C)CC2)ncc1N(C)C(=O)C(C)(C)c1cc(C(F)(F)F)cc(C(F)(F)F)c1` [Example 49, 2-(3,5-Bis-trifluoromethyl-phenyl)-N-methyl-N-[2-(4-methyl-piperazin-1-yl)-4-o-tolyloxy-pyrimidin-5-yl]-isobutyramide] showed a Ki of 0.912 nM.
In turn, `Cc1ccccc1Oc1nc(OCCN2CCOCC2)ncc1N(C)C(=O)C(C)(C)c1cc(C(F)(F)F)cc(C(F)(F)F)c1` [Example 52, 2-(3,5-Bis-trifluoromethyl-phenyl)-N-methyl-N-[2-(2-morpholin-4-yl-ethoxy)-4-o-tolyloxy-pyrimidin-5-yl]-isobutyramide] had an inhibitory constant (Ki) of 0.794 nM.
The same measure, in the same setting: for `CN(C)CCCOc1ncc(N(C)C(=O)C(C)(C)c2cc(C(F)(F)F)cc(C(F)(F)F)c2)c(Oc2ccc(F)cc2)n1` [Example 63, 2-(3,5-Bis-trifluoromethyl-phenyl)-N-[2-(3-dimethylamino-propoxy)-4-(4-fluoro-phenoxy)-pyrimidin-5-yl]-N-methyl-isobutyramide] the value was 9.55 nM.
In the case of `Cc1ccccc1Oc1nc(-c2ccccc2)ncc1N(C)C(=O)C(C)(C)c1cc(C(F)(F)F)cc(C(F)(F)F)c1` [Example 73, 2-(3,5-Bis-trifluoromethyl-phenyl)-N-methyl-N-(2-phenyl-4-o-tolyloxy-pyrimidin-5-yl)-isobutyramide], the Ki is 32.4 nM.
